Experimental findings from ChEMBL document CHEMBL1143206, “Carbonic anhydrase inhibitors: copper(II) complexes of polyamino-polycarboxylamido aromatic/heterocyclic sulfonamides are very potent inhibitors of the tumor-associated isoforms IX and XII” (Bioorg Med Chem Lett, 2008) are described below.

Test [1] concerns the target Carbonic anhydrase 9 (Homo sapiens, UniProt Q16790).
Description: Inhibition of human recombinant CA9 by CO2 hydration stopped flow assay
Test [2] addresses Carbonic anhydrase 12 (Homo sapiens, UniProt O43570).
Description: Inhibition of human recombinant CA12 by CO2 hydration stopped flow assay

The structures appear in SMILES notation.

Chain of Carbonic anhydrase 12 (O43570 whole entry): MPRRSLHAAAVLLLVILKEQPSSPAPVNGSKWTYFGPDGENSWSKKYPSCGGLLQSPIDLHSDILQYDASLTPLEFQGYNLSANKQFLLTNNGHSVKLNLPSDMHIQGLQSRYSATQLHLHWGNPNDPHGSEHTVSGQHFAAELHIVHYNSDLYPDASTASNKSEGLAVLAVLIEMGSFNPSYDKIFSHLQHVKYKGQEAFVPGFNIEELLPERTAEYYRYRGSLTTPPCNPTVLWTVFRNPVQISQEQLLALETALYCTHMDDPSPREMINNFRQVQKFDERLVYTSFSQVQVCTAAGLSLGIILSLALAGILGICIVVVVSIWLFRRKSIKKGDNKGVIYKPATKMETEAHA

With `NS(=O)(=O)c1ccc(NC(=O)CN(CCN(CCN(CC(=O)O)CC(=O)Nc2ccc(S(N)(=O)=O)cc2)CC(=O)O)CC(=O)O)cc1`, affinity in test [1] was put at a Ki of 8.4 nM.
On the same count and under the same terms, for `NS(=O)(=O)c1ccc(CNC(=O)CN(CCN(CC(=O)O)CC(=O)NCc2ccc(S(N)(=O)=O)cc2)CC(=O)O)cc1` the value was 7.3 nM; for `NS(=O)(=O)c1cccc(NC(=O)CN(CCN(CC(=O)O)CC(=O)Nc2cccc(S(N)(=O)=O)c2)CC(=O)O)c1`, 7.9 nM.
With `NS(=O)(=O)c1ccc(CNC(=O)CN(CCN(CCN(CC(=O)O)CC(=O)NCc2ccc(S(N)(=O)=O)cc2)CC(=O)O)CC(=O)O)cc1`, the Ki in test [1] was 8.7 nM.
On the same count and under the same terms, then `NS(=O)(=O)c1ccc(CCNC(=O)CN(CCN(CCN(CC(=O)O)CC(=O)NCCc2ccc(S(N)(=O)=O)cc2)CC(=O)O)CC(=O)O)cc1`, with 7.5 nM; and `NS(=O)(=O)c1cccc(NC(=O)CN(CCN(CCN(CC(=O)O)CC(=O)Nc2cccc(S(N)(=O)=O)c2)CC(=O)O)CC(=O)O)c1`, with 9.6 nM.
`NS(=O)(=O)c1ccc(NC(=O)CN(CCN(CC(=O)O)CC(=O)Nc2ccc(S(N)(=O)=O)cc2)CC(=O)O)cc1` registered a Ki in test [1] of 7.8 nM.
On the same count and under the same terms, for `NS(=O)(=O)c1ccc(CCNC(=O)CN(CCN(CC(=O)O)CC(=O)NCCc2ccc(S(N)(=O)=O)cc2)CC(=O)O)cc1` the value was 8.2 nM.
Still for that read-out and setting: then `NS(=O)(=O)c1nnc(NC(=O)CN(CCN(CC(=O)O)CC(=O)Nc2nnc(S(N)(=O)=O)s2)CC(=O)O)s1`, with 8.5 nM.
Still for that read-out and setting: then `NS(=O)(=O)c1nnc(NC(=O)CN(CCN(CCN(CC(=O)O)CC(=O)Nc2nnc(S(N)(=O)=O)s2)CC(=O)O)CC(=O)O)s1`, with 8.3 nM.
On to `O=C1NS(=O)(=O)c2ccccc21` [SACCHARIN], for which the Ki in test [1] stood at 103 nM; in test [2], 633 nM.

By Ki is commonly meant a measure of affinity in units of concentration, obtained from inhibition or displacement. A high value points to a looser hold on the target.
